Results published in patent US20190142721A1, “COMPOSITION CONTAINING SUBSTANCE FOR REGULATING EXPRESSON OF ABH ANTIGENS” (AMOREPACIFIC CORPORATION, priority 2014, published 2019).

Tests used:
[1] = test system: B antigen (ABH antigen); experiment: Effect of increasing the expression of B antigen in HaCaT cell line (western blot); assay type: cell-based; conditions: HaCaT cells, 2 μg/ml, 48 hours; for expression of B type antigen: western blot, FIG. 2; for expression of ABH antigen: data not shown
Description: The effect of various kinds of compounds on the expression of ABH antigen was examined. For this purpose, HaCaT cells (provided by Prof. Dr. N E Fusenig, DKFZ Heidelberg, Germany) were cultured in 10% FBS-DMEM for 24 hours in a 35 mm dish and then cultured in 0% FBS-DMEM for 24 hours to make to a starvation state.
Again, while replacing the medium with 0% FBS-DMEM, various kinds of compounds as test substances were treated with HaCaT cells at a concentration of 2 μg/ml, respectively, and cultured for 48 hours. At this time, for comparison, the control group was treated with DMSO at the same concentration as the sample. […] In case where these three compounds were treated, proteins were extracted from the cells, the cell lysate was loaded in the same amount, and then the expression of type B antigen was examined by western blot. Alpha-tubulin protein was used as a control group.

[2] = test system: reactive oxygen species (ROS); experiment: Inhibition of formation of reactive oxygen species in UVB-exposed keratinocytes (DCF-DA fluorescence); assay type: cell-based, human; conditions: 2 μg/ml; for ROS, ratio to the ROS of the control group, 0 hr: 0 hr after exposure to 30 mJ/cm^2 of UVB, UVB + untreated 100; for ROS, ratio to the ROS of the control group, 2 hrs: 2 hrs after exposure to 30 mJ/cm^2 of UVB, UVB + untreated 325, untreated 244; for ROS, ratio to the ROS of the control group, 3 hrs: 3 hrs after exposure to 30 mJ/cm^2 of UVB, UVB + untreated 381, untreated 287
Description: 5×10^4 cells of Keratinocytes isolated from the human epidermal tissue were put in each well of a 24-well plate and immobilized for 24 hours. After the culture medium was removed, 100 μl of phosphate buffered saline (PBS) solution was added to each well. The keratinocytes were exposed to 30 mJ/cm^2 of ultraviolet radiation under an ultraviolet B (UV B) lamp (Model: F15T8, UV B 15 W, Sankyo Denki Co., Ltd., Japan). Each well was removed of the PBS solution and then supplied with 200 μl1 of the keratinocyte culture medium. The well was treated with 2 μg/ml of 1,3-dicaffeoylquinic acid, 1,5-dicaffeoylquinic acid and amentoflavone as the test substances, respectively. Then, the quantity of the reactive oxygen species (ROS) increased by the UV stimulation was determined at defined time intervals. At this time, for comparison, the quantity of reactive oxygen species was also measured for those not treated with test substance (untreated) and not stimulated with ultraviolet rays and those subjected to ultraviolet stimulation without treatment of the test substance. The quantity of ROS was quantified by referring to Tan's method for measuring the fluorescence of dichlorofluorescin diacetate (DCF-DA) oxidized by ROS (Tan et al., 1998, J. Cell Biol. Vol. 141, pp 1423-1432).

[3] = test system: procollagen type(I); experiment: Promotion of collagen biosynthesis in fibroblasts (procollagen type(I) ELISA); assay type: cell-based; conditions: 2 μg/ml, 24 hours, untreated group as 100
Description: The collagen biosynthesis promoting effect of 1,3-dicaffeoylquinic acid, 1,5-dicaffeoylquinic acid and amentoflavone used in the present invention was measured in comparison with TGF-β.
First, 1×10^5 cells of fibroblasts were seeded in each well of a 24-well plate and cultured until they grew to about 90%. This was cultured in a serum-free DMEM medium for 24 hours and then treated with 2 μg/ml of 1,3-dicaffeoylquinic acid, 1,5-dicaffeoylquinic acid, amentoflavone and TGF-β, respectively, and cultured for 24 hours in a CO2 incubator. These supernatant fluids were removed and the procollagen type(I) ELISA kit was used to observe whether procollagen was increased or decreased. The results are shown in Table 6, and the collagen synthesis ability was compared with the untreated group as 100.

[4] = test system: PGE-2; experiment: Decrease in expression of skin inflammatory factor PGE-2 in UVB-exposed keratinocytes (ELISA); assay type: cell-based, human; conditions: 2 μg/ml, 16 hours, keratinocytes after UVB exposure
Description: In order to measure the effect of suppressing the expression of PGE-2 which is a skin inflammatory factor of 1,3-dicaffeoylquinic acid, 1,5-dicaffeoylquinic acid and amentoflavone of the present invention, ELISA (Enzyme Linked ImmunoSorbent Assay) was performed (S E Dunsmore, et al., J Biol Chem, 271: 24576-24582, 1996).
5×10^4 cells of keratinocytes isolated from human epidermal tissue were put in each well of a 24-well plate and immobilized for 24 hours. The culture medium was replaced with a medium not containing FBS and treated with aspirin to remove the activity of prostaglandin biosynthetic enzyme (prostaglandin H2 synthetase, or cyclooxygenase). Two hours after aspirin treatment, each well containing keratinocytes was washed twice with PBS to which 100 μl of PBS was added to each well. The keratinocytes were exposed to […] of ultraviolet radiation under an ultraviolet B (UV B) lamp (Model: F15T8, UV B15W, Sankyo Dennki, Japan). Each well was removed of PBS and supplied with 250 ul of the keratinocyte growth media (Clonetics BioWhittacker, MD, USA).
Here, the substances 1,3-dicaffeoylquinic acid, 1,5-dicaffeoylquinic acid and amentoflavone were treated at a dose of 2 μg/ml, followed by culturing for 16 hours. By taking an appropriate amount of culture supernatant and quantifying PGE-2 biosynthesized for 16 hours, the prostaglandin inhibitory effects of 1,3-dicaffeoylquinic acid, 1,5-dicaffeoylquinic acid and amentoflavone was evaluated. The expression inhibitory effect of PGE-2 was calculated by the following mathematical formula 1, and the results are shown in Table 4 below.
Expression inhibition rate of PGE-2(%)=(A−B)/A*100 [Mathematical Formula 1]
A: Absorbance of well to which test substance was not added
B: Absorbance of the well to which test substance was added

[5] = molecular target: T1, 5α-reductase (Homo sapiens, UniProt P31213); experiment: Inhibitory effect on 5α-reductase activity: conversion of [14C]testosterone to [14C]dihydrotestosterone in HEK 293-5α R2 cells; assay type: cell-based; conditions: for Inhibition rate (%) / Conversion rate (%): 2 μg/ml, 2 hours, HEK 293-5α R2 cells; for Inhibition rate (%): relative to conversion rate of control group; for Conversion rate (%): radioactivity at DHT region/total radioactivity, control group 48
T1 construct: 3×FLAG; expressed in transfected cells; host or cells: HEK 293
T1 sequence (P31213 1-254): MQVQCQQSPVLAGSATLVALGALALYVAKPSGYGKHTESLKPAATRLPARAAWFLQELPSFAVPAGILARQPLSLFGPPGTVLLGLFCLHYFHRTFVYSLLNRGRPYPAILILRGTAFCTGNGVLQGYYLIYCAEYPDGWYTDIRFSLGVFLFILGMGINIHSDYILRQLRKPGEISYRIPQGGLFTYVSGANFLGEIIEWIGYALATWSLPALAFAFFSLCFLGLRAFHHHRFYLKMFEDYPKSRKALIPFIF
Description: In order to evaluate the inhibitory effect on the activity of 5α-reductase, the conversion rate from [^14C] testosterone to [^14C] dihydrotestosterone in HEK 293-5α R2 cells was measured. HEK 293 cells were transfected with p3×FLAG-CMV-5α R2, and the transfected HEK 293 cells (HEK 293-5α R2 cells) were seeded in a 24-well plate, 2.5×10^5 cells per well (Park et al., 2003, JDS. Vol. 31, pp 191-98). The next day, the used culture medium was replaced with a new culture medium containing an enzyme substrate and an inhibitor. The substrate of the culture medium used was 0.05 μCi [^14C]testosterone (Amersham Pharmacia Biotech, UK). […] At this time, for comparison, the negative control used was the group not containing any of the above test substances, while the positive control used was the group in which finasteride was added to the medium at 2 μg/ml and cultured under the same conditions. Subsequently, the culture medium was collected to extract estosterone with 800 μl of ethylacetate. The supernatant organic solvent phase was isolated and dried. The residue was dissolved in 50 μl of ethylacetate and developed on silica plastic sheet kieselgel 60 F254 using an ethylacetate-hexane (1:1) as a developing solvent. The plastic sheet was dried out in the air and measured in regards to the abundance of isotope using a BAS system. The dry plastic sheet together with an X-ray film was put in a bath cassette. After one week, the amount of isotope of testosterone and dihydrotestosterone remaining on the film was measured.

[6] = test system: skin pore size; experiment: Effect of reducing skin pores in rhino mice; assay type: in vivo; conditions: 0.5 ml of 1% solution applied to rhino mice for 1 week; control group (solvent) 65
Description: At this time, for comparison, only 0.5 ml of solvent was applied to one group. The substances were treated for 1 week and the back part was biopsied 24 hours after the last treatment. The epidermis was separated, immersed in 0.5% acetic acid, fixed in 10% formalin and cut vertically at […]. After staining with hematoxylin and eosin, the skin pore size was measured using a mechanical eyepiece micrometer.

| SMILES | expression of B type antigen [1] | expression of ABH antigen [1] | ROS, ratio to the ROS of the control group, 0 hr [2] | ROS, ratio to the ROS of the control group, 2 hrs [2] | ROS, ratio to the ROS of the control group, 3 hrs [2] | Collagen synthesis ability (%) [3] [%] | PGE-2 expression inhibition rate(%) [4] [%] | Inhibition rate (%) [5] [%] | Conversion rate (%) [5] [%] | Skin Pore size (µm) [6] [µm] | inhibition at 2 µg/mL ([5]; HEK2935, read-out: Inhibition rate (%)) [%] |
| --- | --- | --- | --- | --- | --- | --- | --- | --- | --- | --- | --- |
| O=C(/C=C/c1ccc(O)c(O)c1)OC1CC(OC(=O)/C=C/c2ccc(O)c(O)c2)(C(=O)O)CC(O)C1O (centres unmarked) [1,3-dicaffeoylquinic acid] | increasing the expression of B type antigen | significantly increase the expression of ABH antigen | 100 | 277 | 319 | 142.1 ± 13.1 | 28.1 | 38 | 30 | 53 | – |
| O=C(/C=C/c1ccc(O)c(O)c1)O[C@@H]1C[C@](OC(=O)/C=C/c2ccc(O)c(O)c2)(C(=O)O)C[C@@H](O)[C@H]1O [1,5-dicaffeoylquinic acid] | increasing the expression of B type antigen | significantly increase the expression of ABH antigen | 100 | 280 | 315 | 144.2 ± 11.0 | 32.5 | 38 | 30 | 54 | – |
| O=C(O[C@@H]1Cc2c(O)cc(O)cc2O[C@@H]1c1cc(O)c(O)c(O)c1)c1cc(O)c(O)c(O)c1 [EGCG, reference compound] | – | – | – | – | – | – | – | – | – | 60 | – |
| CC(C)(C)NC(=O)[C@H]1CC[C@H]2[C@@H]3CC[C@H]4NC(=O)C=C[C@]4(C)[C@H]3CC[C@]12C [Finasteride, finasteride, reference compound] | – | – | – | – | – | – | – | – | 27 | – | – |
| O=c1cc(-c2ccc(O)c(-c3c(O)cc(O)c4c(=O)cc(-c5ccc(O)cc5)oc34)c2)oc2cc(O)cc(O)c12 [amentoflavone] | increasing the expression of B type antigen | significantly increase the expression of ABH antigen | 100 | 288 | 320 | 147.7 ± 15.8 | 30.9 | – | 32 | 50 | 33 |
